Reference: patent US10626144B2, “Peptide derivatives and uses thereof” (Nosopharm, priority 2014, dated 2020)
Numbered stars: 1 amine (or outer) side, 2 acyl side, 3 side chain; on linkers, the order of the positions; unused ones are H or OH. Square brackets hold non-standard residues; d marks the D form. Peptide text beside a SMILES is read from it. * marks the point of attachment. Phe(3,4-(OMe)2) = COc1ccc(C[C@H](N)C(=O)O)cc1OC; Phe(3,4-F2) = N[C@@H](Cc1ccc(F)c(F)c1)C(=O)O; Abu(4,4,4-F3) = N[C@@H](CC(F)(F)F)C(=O)O; Phe(4-CN) = N#Cc1ccc(C[C@H](N)C(=O)O)cc1; Phe(4-Cl) = N[C@@H](Cc1ccc(Cl)cc1)C(=O)O; X6 = NC[C@@H](O)[C@@H](N[*:1])C(=O)[*:2]; Phe(2-CN) = N#Cc1ccccc1C[C@H](N)C(=O)O; Pro(5S-Me) = C[C@H]1CC[C@@H](C(=O)O)N1; Dab(3S-OH) = NC[C@H](O)[C@H](N)C(=O)O; ΔZArg = N=C(N)NCC/C=C(\N)C(=O)O; Gly(cPr) = N[C@H](C(=O)O)C1CC1; AllylGly = C=CC[C@H](N)C(=O)O; NMeK = CN[C@@H](CCCCN)C(=O)O; dOrn = NCCC[C@@H](N)C(=O)O; NMeA = CN[C@@H](C)C(=O)O; Orn = NCCC[C@H](N)C(=O)O; Dab = NCC[C@H](N)C(=O)O; NH(CH2)5NH2 = NCCCCCN*; NH(CH2)4NH2 = NCCCCN*

Experiments:
Experiment in all cases: MIC, broth microdilution (CLSI), reference strain
Conditions in all cases: CAMHB
[1] = tested on: Pseudomonas aeruginosa ATCC 27853
[2] = tested on: Escherichia coli ATCC 25922
[3] = tested on: Acinetobacter baumannii ATCC 19606
[4] = tested on: Staphylococcus aureus ATCC 13709

Pa: MIC Pseudomonas aeruginosa ATCC 27853 [1] | Ec: MIC Escherichia coli ATCC 25922 [2] | Ab: MIC Acinetobacter baumannii ATCC 19606 [3] | Sa: MIC Staphylococcus aureus ATCC 13709 [4] | Compound
− (>32 μg/mL) | + (≤32 μg/mL) | − (>32 μg/mL) | + (≤32 μg/mL) | CN[C@@H](CCCCN)C(=O)N[C@H](C(=O)N[C@@H](C)C(=O)NCC(=O)N[C@H](CCCN)C(=O)N1CCC[C@H]1C(=O)N[C@@H](Cc1cnc[nH]1)C(=O)N[C@@H](CCCCN)C(=O)N/C(=C\CCNC(=N)N)C(=O)O)[C@@H](O)CN [24.126] (H-[NMeK][Dab(3S-OH)]AG[dOrn]PHK[ΔZArg]-OH)
− (>32 μg/mL) | − (>32 μg/mL) | − (>32 μg/mL) | ++ (≤8 μg/mL) | N=C(N)NCC/C=C(\NC(=O)[C@H](CCCCN)NC(=O)[C@H](Cc1cnc[nH]1)NC(=O)[C@@H]1CCCN1C(=O)[C@@H](CCCN)NC(=O)CNC(=O)[C@@H](NC(=O)[C@H](CCN)NC(=O)[C@@H](N)CCCCN)[C@@H](O)CN)C(=O)N[C@@H](CCCCN)C(=O)NCCCCN [12.1] (H-K[Dab][Dab(3S-OH)]G[dOrn]PHK[ΔZArg]K-{NH(CH2)4NH2})
− (>32 μg/mL) | − (>32 μg/mL) | − (>32 μg/mL) | + (≤32 μg/mL) | N=C(N)NCC/C=C(\NC(=O)[C@H](CCCCN)NC(=O)[C@H](Cc1cnc[nH]1)NC(=O)[C@@H]1CCCN1C(=O)[C@@H](CCCN)NC(=O)CNC(=O)[C@H](CCC(N)=O)NC(=O)[C@@H](NC(=O)[C@@H](N)CCCCN)[C@@H](O)CN)C(N)=O [222.1] (H-K[Dab(3S-OH)]QG[dOrn]PHK[ΔZArg]-NH2)
− (>32 μg/mL) | + (≤32 μg/mL) | − (>32 μg/mL) | ++ (≤8 μg/mL) | C[C@H](NC(=O)[C@@H](NC(=O)[C@@H](N)CCCCN)[C@@H](O)CN)C(=O)NCC(=O)N[C@H](CCCN)C(=O)N1[C@@H](C)CC[C@H]1C(=O)N[C@@H](Cc1cnc[nH]1)C(=O)N[C@@H](CCCCN)C(=O)N/C(=C\CCNC(=N)N)C(=O)O [24.145] (H-K[Dab(3S-OH)]AG[dOrn][Pro(5S-Me)]HK[ΔZArg]-OH)
− (>32 μg/mL) | − (>32 μg/mL) | − (>32 μg/mL) | ++ (≤8 μg/mL) | N=C(N)NCC/C=C(\NC(=O)[C@H](CCCCN)NC(=O)[C@H](Cc1cnc[nH]1)NC(=O)[C@@H]1CCCN1C(=O)[C@@H](CCCN)NC(=O)CNC(=O)[C@H](NC(=O)[C@@H](NC(=O)[C@@H](N)CCCCN)[C@@H](O)CN)[C@H](O)CN)C(=O)N[C@@H](CCCCN)C(=O)NCCCCN [22.32] (H-K[Dab(3S-OH)][X6]G[dOrn]PHK[ΔZArg]K-{NH(CH2)4NH2})
− (>32 μg/mL) | + (≤32 μg/mL) | − (>32 μg/mL) | ++ (≤8 μg/mL) | C[C@H](NC(=O)[C@@H](NC(=O)[C@@H](N)CCCCN)[C@@H](O)CN)C(=O)NCC(=O)N[C@H](CCCN)C(=O)N1CCC[C@H]1C(=O)N[C@@H](Cc1cnc[nH]1)C(=O)N[C@@H](CCCCN)C(=O)N[C@H](CCCNC(=N)N)C(N)=O [24.68] (H-K[Dab(3S-OH)]AG[dOrn]PHK[dR]-NH2)
+ (≤32 μg/mL) | ++ (≤8 μg/mL) | − (>32 μg/mL) | ++ (≤8 μg/mL) | C[C@H](NC(=O)[C@@H](NC(=O)[C@@H](N)CCCCN)[C@@H](O)CN)C(=O)NCC(=O)N[C@H](CCCN)C(=O)N1CCC[C@H]1C(=O)N[C@@H](Cc1cnc[nH]1)C(=O)N[C@@H](CCCCN)C(=O)N/C(=C\CCNC(=N)N)C(=O)N[C@@H](CCCCN)C(N)=O [24.2] (H-K[Dab(3S-OH)]AG[dOrn]PHK[ΔZArg]K-NH2)
− (>32 μg/mL) | + (≤32 μg/mL) | − (>32 μg/mL) | + (≤32 μg/mL) | N=C(N)NCC/C=C(\NC(=O)[C@H](CCCCN)NC(=O)[C@H](Cc1cnc[nH]1)NC(=O)[C@@H]1CCCN1C(=O)[C@@H](CCCN)NC(=O)CNC(=O)[C@@H](NC(=O)[C@@H](NC(=O)[C@@H](N)CCCCN)[C@@H](O)CN)C1CC1)C(=O)O [213.2] (H-K[Dab(3S-OH)][Gly(cPr)]G[dOrn]PHK[ΔZArg]-OH)
− (>32 μg/mL) | + (≤32 μg/mL) | − (>32 μg/mL) | ++ (≤8 μg/mL) | C[C@H](NC(=O)[C@H](CCN)NC(=O)[C@@H](N)CCCCN)C(=O)NCC(=O)N[C@H](CCCN)C(=O)N1CCC[C@H]1C(=O)N[C@@H](Cc1cnc[nH]1)C(=O)N[C@@H](CCCCN)C(=O)N/C(=C\CCNC(=N)N)C(=O)N[C@@H](CCCCN)C(=O)NCCCCCN [14.5] (H-K[Dab]AG[dOrn]PHK[ΔZArg]K-{NH(CH2)5NH2})
− (>32 μg/mL) | − (>32 μg/mL) | − (>32 μg/mL) | + (≤32 μg/mL) | C=CC[C@H](NC(=O)[C@@H](NC(=O)[C@@H](N)CCCCN)[C@@H](O)CN)C(=O)NCC(=O)N[C@H](CCCN)C(=O)N1CCC[C@H]1C(=O)N[C@@H](Cc1cnc[nH]1)C(=O)N[C@@H](CCCCN)C(=O)N/C(=C\CCNC(=N)N)C(=O)O [216.1] (H-K[Dab(3S-OH)][AllylGly]G[dOrn]PHK[ΔZArg]-OH)

The next lines start with the compound.

Compound | Pa: MIC Pseudomonas aeruginosa ATCC 27853 [1] | Ec: MIC Escherichia coli ATCC 25922 [2] | Ab: MIC Acinetobacter baumannii ATCC 19606 [3] | Sa: MIC Staphylococcus aureus ATCC 13709 [4]
CN[C@@H](CCCCN)C(=O)N[C@H](C(=O)N[C@@H](C)C(=O)NCC(=O)N[C@H](CCCN)C(=O)N1CCC[C@H]1C(=O)N[C@@H](Cc1ccc(Cl)cc1)C(=O)N[C@@H](CCCCN)C(=O)N/C(=C\CCNC(=N)N)C(=O)O)[C@@H](O)CN [24.98] (H-[NMeK][Dab(3S-OH)]AG[dOrn]P[Phe(4-Cl)]K[ΔZArg]-OH) | − (>32 μg/mL) | + (≤32 μg/mL) | − (>32 μg/mL) | ++ (≤8 μg/mL)
N=C(N)NCC/C=C(\NC(=O)[C@H](CCCCN)NC(=O)[C@H](CC(F)(F)F)NC(=O)[C@@H]1CCCN1C(=O)[C@@H](CCCN)NC(=O)CNC(=O)[C@H](CCN)NC(=O)[C@@H](NC(=O)[C@@H](N)CCCCN)[C@@H](O)CN)C(=O)O [21.11] (H-K[Dab(3S-OH)][Dab]G[dOrn]P[Abu(4,4,4-F3)]K[ΔZArg]-OH) | − (>32 μg/mL) | ++ (≤8 μg/mL) | − (>32 μg/mL) | ++ (≤8 μg/mL)
N#Cc1ccc(C[C@H](NC(=O)[C@@H]2CCCN2C(=O)[C@@H](CCCN)NC(=O)CNC(=O)[C@H](CCCN)NC(=O)[C@@H](NC(=O)[C@@H](N)CCCCN)[C@@H](O)CN)C(=O)N[C@@H](CCCCN)C(=O)N/C(=C\CCNC(=N)N)C(=O)O)cc1 [211.6] (H-K[Dab(3S-OH)][Orn]G[dOrn]P[Phe(4-CN)]K[ΔZArg]-OH) | − (>32 μg/mL) | ++ (≤8 μg/mL) | − (>32 μg/mL) | ++ (≤8 μg/mL)
C[C@H](NC(=O)[C@@H](NC(=O)[C@@H](N)CCCCN)[C@@H](O)CN)C(=O)NCC(=O)N[C@H](CCCN)C(=O)N(C)[C@@H](C)C(=O)N[C@@H](Cc1cnc[nH]1)C(=O)N[C@@H](CCCCN)C(=O)N/C(=C\CCNC(=N)N)C(=O)O [24.146] (H-K[Dab(3S-OH)]AG[dOrn][NMeA]HK[ΔZArg]-OH) | − (>32 μg/mL) | − (>32 μg/mL) | − (>32 μg/mL) | − (>32 μg/mL)
COc1ccc(C[C@H](NC(=O)[C@@H]2CCCN2C(=O)[C@@H](CCCN)NC(=O)CNC(=O)[C@H](CCCN)NC(=O)[C@@H](NC(=O)[C@@H](N)CCCCN)[C@@H](O)CN)C(=O)N[C@@H](CCCCN)C(=O)N/C(=C\CCNC(=N)N)C(=O)O)cc1OC [211.10] (H-K[Dab(3S-OH)][Orn]G[dOrn]P[Phe(3,4-(OMe)2)]K[ΔZArg]-OH) | − (>32 μg/mL) | ++ (≤8 μg/mL) | − (>32 μg/mL) | ++ (≤8 μg/mL)
C[C@H](NC(=O)[C@@H](NC(=O)[C@@H](N)CCCCN)[C@@H](O)CN)C(=O)NCC(=O)N[C@H](CCCN)C(=O)N1CCC[C@H]1C(=O)N[C@@H](Cc1ccccc1C#N)C(=O)N[C@@H](CCCCN)C(=O)N/C(=C\CCNC(=N)N)C(=O)O [24.81] (H-K[Dab(3S-OH)]AG[dOrn]P[Phe(2-CN)]K[ΔZArg]-OH) | − (>32 μg/mL) | − (>32 μg/mL) | − (>32 μg/mL) | − (>32 μg/mL)
C[C@H](NC(=O)[C@@H](NC(=O)[C@@H](N)CCCCN)[C@@H](O)CN)C(=O)NCC(=O)N[C@H](CCCN)C(=O)N1CCC[C@H]1C(=O)N[C@@H](Cc1ccc(F)c(F)c1)C(=O)N[C@@H](CCCCN)C(=O)N/C(=C\CCNC(=N)N)C(=O)O [24.84] (H-K[Dab(3S-OH)]AG[dOrn]P[Phe(3,4-F2)]K[ΔZArg]-OH) | − (>32 μg/mL) | ++ (≤8 μg/mL) | − (>32 μg/mL) | ++ (≤8 μg/mL)
COc1ccc(C[C@H](NC(=O)[C@@H]2CCCN2C(=O)[C@@H](CCCN)NC(=O)CNC(=O)[C@H](CCN)NC(=O)[C@@H](NC(=O)[C@@H](N)CCCCN)[C@@H](O)CN)C(=O)N[C@@H](CCCCN)C(=O)N/C(=C\CCNC(=N)N)C(=O)O)cc1OC [21.5] (H-K[Dab(3S-OH)][Dab]G[dOrn]P[Phe(3,4-(OMe)2)]K[ΔZArg]-OH) | − (>32 μg/mL) | ++ (≤8 μg/mL) | − (>32 μg/mL) | ++ (≤8 μg/mL)
